What all share (type): biochemical
The target in one experiment is PDE1C (Homo sapiens, UniProt Q14123). Put plainly: PDE1 inhibition assay (SPA), PDE1C. As to conditions: concentration required to reach 50% inhibition of the enzyme; 15 nM tritium labelled cAMP; read-out: PDE1C inhibition (nM or %): IC50. The essentials: (§1)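 A scintillation proximity assay used enzyme sufficient for 20–25% substrate conversion and 15 nM tritiated cAMP in 50 mM HEPES pH 7.6, 10 mM MgCl2, 0.02% Tween20 and 0.1 mg/ml BSA, run for 1 h at room temperature. Reactions were stopped with yttrium silicate SPA beads. IC50 values were derived from activity relative to uninhibited control.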
Sequence of PDE1C (Q14123 whole entry): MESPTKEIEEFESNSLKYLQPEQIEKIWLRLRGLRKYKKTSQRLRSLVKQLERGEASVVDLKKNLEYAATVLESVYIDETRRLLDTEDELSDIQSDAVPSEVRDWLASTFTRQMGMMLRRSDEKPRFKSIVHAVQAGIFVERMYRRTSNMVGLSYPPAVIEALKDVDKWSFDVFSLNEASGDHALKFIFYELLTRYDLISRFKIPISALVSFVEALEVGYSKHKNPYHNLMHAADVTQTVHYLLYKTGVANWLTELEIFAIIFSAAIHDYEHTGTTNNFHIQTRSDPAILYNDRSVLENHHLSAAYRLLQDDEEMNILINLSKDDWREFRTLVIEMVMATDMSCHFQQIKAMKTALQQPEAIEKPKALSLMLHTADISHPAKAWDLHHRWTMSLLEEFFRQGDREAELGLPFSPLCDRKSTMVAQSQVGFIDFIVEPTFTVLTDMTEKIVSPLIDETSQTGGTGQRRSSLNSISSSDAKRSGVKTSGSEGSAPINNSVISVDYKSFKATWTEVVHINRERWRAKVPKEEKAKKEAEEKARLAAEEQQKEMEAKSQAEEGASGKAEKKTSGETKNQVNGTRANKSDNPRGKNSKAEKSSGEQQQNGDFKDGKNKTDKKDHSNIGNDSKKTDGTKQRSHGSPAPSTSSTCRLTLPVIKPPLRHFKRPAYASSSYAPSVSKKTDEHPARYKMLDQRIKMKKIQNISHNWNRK

The target of the next experiment is PDE1B (Homo sapiens, UniProt Q01064). Put plainly: PDE1 inhibition assay (SPA), PDE1B. As to conditions: for IC50: concentration required to reach 50% inhibition of the enzyme, 15 nM tritium labelled cAMP, read-out: PDE1B inhibition (nM or %): IC50. The procedure, abridged: as §1
Sequence of PDE1B (Q01064 whole entry): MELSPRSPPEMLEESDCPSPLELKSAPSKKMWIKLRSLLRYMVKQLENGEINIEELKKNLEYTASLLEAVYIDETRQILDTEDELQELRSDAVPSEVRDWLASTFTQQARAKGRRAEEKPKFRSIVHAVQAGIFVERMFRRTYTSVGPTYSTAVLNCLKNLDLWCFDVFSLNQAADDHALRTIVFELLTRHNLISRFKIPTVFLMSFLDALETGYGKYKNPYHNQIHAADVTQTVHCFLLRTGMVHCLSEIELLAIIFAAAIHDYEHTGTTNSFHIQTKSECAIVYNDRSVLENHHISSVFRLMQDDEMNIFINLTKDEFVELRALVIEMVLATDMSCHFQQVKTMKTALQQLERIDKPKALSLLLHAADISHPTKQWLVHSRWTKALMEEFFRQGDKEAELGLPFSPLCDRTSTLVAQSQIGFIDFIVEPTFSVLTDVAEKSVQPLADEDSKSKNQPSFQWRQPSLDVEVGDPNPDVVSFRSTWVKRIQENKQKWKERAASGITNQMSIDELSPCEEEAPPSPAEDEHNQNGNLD
A further experiment addresses PDE1A (Homo sapiens, UniProt P54750). Put plainly: PDE1 inhibition assay (SPA), PDE1A. As to conditions: for IC50: concentration required to reach 50% inhibition of the enzyme, 15 nM tritium labelled cAMP, read-out: PDE1A inhibition (nM or %): IC50. The procedure, abridged:
as §1

Sequence of PDE1A (P54750 whole entry): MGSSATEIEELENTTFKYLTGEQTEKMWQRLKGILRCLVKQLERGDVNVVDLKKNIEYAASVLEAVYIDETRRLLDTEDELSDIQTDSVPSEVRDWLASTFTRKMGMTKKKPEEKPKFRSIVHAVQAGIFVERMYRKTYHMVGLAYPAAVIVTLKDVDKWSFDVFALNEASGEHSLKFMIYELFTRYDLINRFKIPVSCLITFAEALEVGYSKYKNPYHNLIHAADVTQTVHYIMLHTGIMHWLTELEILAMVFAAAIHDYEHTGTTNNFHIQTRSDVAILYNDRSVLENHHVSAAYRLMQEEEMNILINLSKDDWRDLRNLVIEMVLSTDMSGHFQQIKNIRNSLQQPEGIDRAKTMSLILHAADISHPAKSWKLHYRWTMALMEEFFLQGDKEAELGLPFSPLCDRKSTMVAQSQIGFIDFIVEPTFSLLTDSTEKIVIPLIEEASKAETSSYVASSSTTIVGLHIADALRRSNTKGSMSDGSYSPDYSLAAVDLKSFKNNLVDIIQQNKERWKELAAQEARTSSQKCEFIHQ

The term IC50 denotes the point on the concentration scale where inhibition reaches its midpoint. Consider `O=c1c2nnc(C3CCOCC3)n2cc(Br)n1CC1CCCCCC1` [6-bromo-7-(cycloheptylmethyl)-3-(tetrahydro-2H-pyran-4-yl)-[1,2,4]triazolo[4,3-a]pyrazin-8(7H)-one], for which the IC50 on PDE1C was 3 nM; on PDE1B it was 4 nM; at PDE1A it was 13 nM.
The corresponding values for `O=c1c2nnc(CC3CCOC3)n2ccn1Cc1cccc(F)c1` (stereo not drawn) [7-(3-Fluorobenzyl)-3-((tetrahydrofuran-3-yl)methyl)-[1,2,4]triazolo[4,3-a]pyrazin-8(7H)-one] are 420 nM, 1900 nM and 1200 nM.
The corresponding values for `Cc1ccc(Cc2cn3c(C4CCOCC4)nnc3c(=O)n2Cc2cccc(F)c2)cc1` [7-(3-fluorobenzyl)-6-(4-methylbenzyl)-3-(tetrahydro-2H-pyran-4-yl)-[1,2,4]triazolo[4,3-a]pyrazin-8(7H)-one] are 1 nM, 6 nM and 7 nM.
On to `O=c1c2nnc(C3CCOCC3)n2cc(Cc2ccccc2)n1Cc1cccc(F)c1` [6-benzyl-7-(3-fluorobenzyl)-3-(tetrahydro-2H-pyran-4-yl)-[1,2,4]triazolo[4,3-a]pyrazin-8(7H)-one], for which the IC50 at PDE1C was determined as 5 nM; on PDE1B it was 18 nM; at PDE1A it was 32 nM.
On to `O=c1c2nnc([C@H]3CC[C@H](O)CC3)n2ccn1Cc1cccc(F)c1` [7-(3-Fluorobenzyl)-3-((1r,4r)-4-hydroxycyclohexyl)-[1,2,4]triazolo[4,3-a]pyrazin-8(7H)-one], for which the IC50 on PDE1C worked out at 200 nM; on PDE1B it was 630 nM; at PDE1A it was 1000 nM.
The corresponding values for `O=c1c2nnc(C3CC3)n2ccn1Cc1cccc(F)c1` [3-Cyclopropyl-7-(3-fluorobenzyl)-[1,2,4]triazolo[4,3-a]pyrazin-8(7H)-one] are 210 nM, 780 nM and 500 nM.
In the same order, the values of `Cc1cccc(Cc2cn3c(C4CCOCC4)nnc3c(=O)n2CC2CCCC2)c1` [7-(cyclopentylmethyl)-6-(3-methylbenzyl)-3-(tetrahydro-2H-pyran-4-yl)-[1,2,4]triazolo[4,3-a]pyrazin-8(7H)-one] are 4 nM, 37 nM and 17 nM.
The corresponding values for `Cc1ccccc1Cc1cn2c(C3CCOCC3)nnc2c(=O)n1CC1CCCCCC1` [7-(cycloheptylmethyl)-6-(2-methylbenzyl)-3-(tetrahydro-2H-pyran-4-yl)-[1,2,4]triazolo[4,3-a]pyrazin-8(7H)-one] are 14 nM, 39 nM and 25 nM.
What is called inhibition is the change of the read-out against control, counted positive when it falls. On to `CC(C)CCn1ccn2c(C3CCOCC3)nnc2c1=O` [7-isopentyl-3-(tetrahydro-2H-pyran-4-yl)-[1,2,4]triazolo[4,3-a]pyrazin-8(7H)-one], for which the IC50 at PDE1C amounted to 1100 nM. Also, the inhibition at 10 µM was determined as 55% on PDE1B (1 h, % inhibition of the enzyme at a concentration of 10 micro molar of the compound, read-out: PDE1B inhibition (nM or %): % inhib) and 47% at PDE1A (1 h, % inhibition of the enzyme at a concentration of 10 micro molar of the compound, read-out: PDE1A inhibition (nM or %): % inhib).
For `CCCc1nnc2c(=O)n(CC3(C)CCCCC3)ccn12` [7-((1-methylcyclohexyl)methyl)-3-propyl-[1,2,4]triazolo[4,3-a]pyrazin-8(7H)-one], the IC50 was 260 nM on PDE1C, 950 nM at PDE1B and 1300 nM on PDE1A.
In the same order, the values of `CCCc1nnc2c(=O)n(Cc3cccc(F)c3)cc([C@@H]3CCOC3)n12` (single isomer, unassigned) are 260 nM, 1000 nM and 1780 nM.
In the same order, the values of `CCCc1nnc2c(=O)n(CC3CCCCCC3)ccn12` [7-(Cycloheptylmethyl)-3-propyl-[1,2,4]triazolo[4,3-a]pyrazin-8(7H)-one] are 33 nM, 28 nM and 54 nM.
As to `O=c1c2nnc(CCF)n2ccn1Cc1cccc(F)c1` [7-(3-Fluorobenzyl)-3-(2-fluoroethyl)-[1,2,4]triazolo[4,3-a]pyrazin-8(7H)-one], the IC50 at PDE1C stood at 620 nM; on PDE1B, 3000 nM; at PDE1A, 2900 nM.
Take `O=c1c2nnc(C3CCOCC3)n2cc(Cc2ccccc2)n1CC1CCCCC1` [6-benzyl-7-(cyclohexylmethyl)-3-(tetrahydro-2H-pyran-4-yl)-[1,2,4]triazolo[4,3-a]pyrazin-8(7H)-one]: the IC50 came out at 4 nM at PDE1C, 11 nM on PDE1B and 11 nM on PDE1A.
Regarding `CCCc1nnc2c(=O)n(Cc3ccc(C)cc3)ccn12` [7-(4-Methylbenzyl)-3-propyl-[1,2,4]triazolo[4,3-a]pyrazin-8(7H)-one], the IC50 amounted to 780 nM on PDE1C, 930 nM at PDE1B and 1000 nM at PDE1A.
In the same order, the values of `O=c1c2nnc(C3CCOCC3)n2cc(Cc2cccc(F)c2)n1Cc1cccc(F)c1` [6,7-bis(3-fluorobenzyl)-3-(tetrahydro-2H-pyran-4-yl)-[1,2,4]triazolo[4,3-a]pyrazin-8(7H)-one] are 8 nM, 40 nM and 47 nM.
The corresponding values for `O=c1c2nnc(C3CCOCC3)n2cc(Cc2ccc(F)cc2)n1CC1CCCCC1` [7-(cyclohexylmethyl)-6-(4-fluorobenzyl)-3-(tetrahydro-2H-pyran-4-yl)-[1,2,4]triazolo[4,3-a]pyrazin-8(7H)-one] are 6 nM, 17 nM and 12 nM.
Take `CCCc1nnc2c(=O)n(Cc3cccc(Cl)c3)ccn12` [7-(3-Chlorobenzyl)-3-propyl-[1,2,4]triazolo[4,3-a]pyrazin-8(7H)-one]: the IC50 is 160 nM at PDE1C, 1300 nM on PDE1B and 1400 nM on PDE1A.
In the same order, the values of `O=c1c2nnc([C@H]3CC[C@@H](O)CC3)n2ccn1Cc1cccc(F)c1` [7-(3-Fluorobenzyl)-3-((1s,4s)-4-hydroxycyclohexyl)-[1,2,4]triazolo[4,3-a]pyrazin-8(7H)-one] are 350 nM, 1000 nM and 1800 nM.
The corresponding values for `O=c1c2nnc(C3CCOCC3)n2cc(Cc2ccc(-c3ccccc3)cc2)n1CC1CCCCC1` [6-([1,1′-biphenyl]-4-ylmethyl)-7-(cyclohexylmethyl)-3-(tetrahydro-2H-pyran-4-yl)-[1,2,4]triazolo[4,3-a]pyrazin-8(7H)-one] are 0.1 nM, 0.17 nM and 0.33 nM.
In the same order, the values of `O=c1c2nnc(C3CCOCC3)n2ccn1CC1CCCCC1` [7-(Cyclohexylmethyl)-3-(tetrahydro-2H-pyran-4-yl)-[1,2,4]triazolo[4,3-a]pyrazin-8(7H)-one] are 87 nM, 190 nM and 220 nM.
For the compound `CCCc1nnc2c(=O)n(CC3CCC(C)CC3)ccn12` (single isomer, unassigned) [7-(((1 r,4r)-4-methylcyclohexyl)methyl)-3-propyl-[1,2,4]triazolo[4,3-a]pyrazin-8(7H)-one], the IC50 turned out to be 120 nM on PDE1C, 40 nM at PDE1B and 79 nM on PDE1A.
The corresponding values for `O=c1c2nnc(C3CCOCC3)n2cc(Cc2ccccc2)n1Cc1ccc(F)cc1` [6-benzyl-7-(4-fluorobenzyl)-3-(tetrahydro-2H-pyran-4-yl)-[1,2,4]triazolo[4,3-a]pyrazin-8(7H)-one] are 6 nM, 12 nM and 15 nM.

Values taken from patent US10150771B2, “Triazolopyrazinones as PDE1 inhibitors” (H. Lundbeck A/S, priority 2014, dated 2018).
